Experiments:
[1] = Photodecomposition of monatin in beverage model solution in PET container under D65 fluorescence lamp, HPLC; type: physicochemical; conditions: D65 lamp 3000 lux, 165 hr
Method: Temperature: 25° C. constant temperature room (forced circulation).
HPLC Analysis Conditions:
The pH of a beverage model solution, a (citric acid 2 g, sodium benzoate 0.045 g)/L solution, was adjusted with 8N sodium hydroxide. (2R, 4R)monatin potassium salt (25 mg) and various additives were dissolved in the adjusted beverage model solution (500 mL) and filled in PET containers. […] The solution was simultaneously filled in a 20 ml screw cap vial and left standing for the same time in the same constant temperature room under a light shield. These light exposure solutions and light shield solutions were subjected to HPLC analysis, and photodecomposition rates were calculated by the following formula: The photodecomposition rate (%)=(1−(mass % concentration of monatin in light exposure solution/mass % concentration of monatin in light shield solution))×100 […]

[2] = Decomposition of monatin in solution by ultraviolet light (findings of the inventor); type: physicochemical; conditions: solution state

Compound | photodecomposition rate ([1]; pH 2.8, 50 ppm) | photodecomposition rate ([1]; pH 3.1, 50 ppm) | photodecomposition rate ([1]; pH 3.5, 50 ppm) | photodecomposition rate ([1]; pH 4, 50 ppm) | photodecomposition rate ([1]; pH 4.5, 50 ppm) | photodecomposition rate ([1]; pH 5.5, 50 ppm) | photodecomposition rate ([1]; pH 6.5, 50 ppm) | decomposition by ultraviolet light [2]
N[C@@H](Cc1c[nH]c2ccccc12)C(=O)O [Trp, tryptophan, reference compound] | 7.3% | 6.0% | 6.2% | 5.5% | 5.4% | 12.5% | 55.1% | –
N[C@@H](C[C@@](O)(Cc1c[nH]c2ccccc12)C(=O)O)C(=O)O [monatin] | 52.5% | 45.1% | 27.6% | 15.9% | 10.2% | 4.8% | 4.3% | tends to decompose when exposed to ultraviolet light
(2R,4S)monatin | – | – | – | – | – | – | – | tend to be more easily decomposed by ultraviolet light than the other isomers
(2S,4R)monatin | – | – | – | – | – | – | – | tend to be more easily decomposed by ultraviolet light than the other isomers

Reference: patent US7781005B2, “Sweetener composition” (Ajinomoto Co., Inc., priority 2004, dated 2010)
